ChEMBL document CHEMBL1275543, “Proposed MIC and disk diffusion microbiological cutoffs and spectrum of activity of retapamulin, a novel topical antimicrobial agent” (2008)
Converted amounts (≈) assume the structure as drawn.

Key:
Assay type in all cases: functional
[1] = Antibacterial activity against gram-negative Bacilli species
Streptococcus viridans = assay: Antibacterial activity against Streptococcus viridans
Staphylococcus aureus [2] = assay: Antibacterial activity against methicillin sensitive Staphylococcus aureus
Staphylococcus [3] = assay: Antibacterial activity against methicillin resistant coagulase-negative Staphylococcus
Streptococcus agalactiae = assay: Antibacterial activity against Streptococcus agalactiae
[4] = Antibacterial activity against beta-hemolytic Streptococcus group G; conditions: Streptococcus sp. 'group G'
Staphylococcus [5] = assay: Antibacterial activity against coagulase-negative Staphylococcus
Staphylococcus aureus [6] = assay: Antibacterial activity against vancomycin intermediate Staphylococcus aureus
Staphylococcus aureus [7] = assay: Antibacterial activity against Staphylococcus aureus
Staphylococcus aureus [8] = assay: Antibacterial activity against methicillin resistant Staphylococcus aureus
Enterococcus = assay: Antibacterial activity against Enterococcus species
Staphylococcus [9] = assay: Ratio of MBC90 to MIC90 for coagulase-negative Staphylococcus
Staphylococcus aureus [10] = assay: Ratio of MBC90 to MIC90 for Staphylococcus aureus
[11] = Antibacterial activity against beta-hemolytic Streptococcus group C; conditions: Streptococcus sp. 'group C'
Streptococcus pyogenes [12] = assay: Ratio of MBC90 to MIC90 for Streptococcus pyogenes
Staphylococcus [13] = assay: Antibacterial activity against methicillin sensitive coagulase-negative Staphylococcus
Streptococcus pyogenes [14] = assay: Antibacterial activity against Streptococcus pyogenes

`C=C[C@]1(C)C[C@@H](OC(=O)CS[C@@H]2C[C@H]3CC[C@@H](C2)N3C)[C@]2(C)[C@H](C)CC[C@]3(CCC(=O)[C@H]32)[C@@H](C)[C@@H]1O` [RETAPAMULIN] gave an MIC50 [1] of 256 µg/mL (≈ 494 µM), an MIC90 [1] of over 512 µg/mL and an MIC50 (Streptococcus viridans) of 0.06 µg/mL (≈ 0.116 µM). The MIC90 (Streptococcus viridans) was 0.25 µg/mL (≈ 0.483 µM), the MIC50 (Staphylococcus aureus [2]) was 0.12 µg/mL (≈ 0.232 µM) and the MIC90 (Staphylococcus aureus [2]) was 0.12 µg/mL (≈ 0.232 µM). The MIC50 (Staphylococcus [3]) was 0.06 µg/mL (≈ 0.116 µM), the MIC90 (Staphylococcus [3]) was 0.12 µg/mL (≈ 0.232 µM) and the MIC50 (Streptococcus agalactiae) was 0.03 µg/mL (≈ 0.0579 µM). For the same compound, the MIC90 (Streptococcus agalactiae) was 0.03 µg/mL (≈ 0.0579 µM), the MIC50 [4] was 0.03 µg/mL (≈ 0.0579 µM) and the MIC90 [4] was 0.06 µg/mL (≈ 0.116 µM). For the same compound, the MBC (Staphylococcus [5]) was 64 µg/mL (≈ 124 µM), the MIC50 (Staphylococcus aureus [6]) was 0.06 µg/mL (≈ 0.116 µM) and the MIC90 (Staphylococcus aureus [6]) was 0.12 µg/mL (≈ 0.232 µM). For the same compound, the Activity (Staphylococcus aureus [7]) was 128 µg/mL, the MIC50 (Staphylococcus aureus [8]) was 0.12 µg/mL (≈ 0.232 µM) and the MIC90 (Staphylococcus aureus [8]) was 0.12 µg/mL (≈ 0.232 µM). It also gave an MIC50 (Enterococcus) of 64 µg/mL (≈ 124 µM), an MIC90 (Enterococcus) of 128 µg/mL (≈ 247 µM) and a Ratio (Staphylococcus [9]) of 512. For the same compound, the Ratio (Staphylococcus aureus [10]) was 1024, the MIC [11] was 0.016 µg/mL (≈ 0.0309 µM) and the MIC50 [11] was 0.016 µg/mL (≈ 0.0309 µM). For the same compound, the MIC90 [11] was 0.03 µg/mL (≈ 0.0579 µM), the Ratio (Streptococcus pyogenes [12]) was 256 and the MIC50 (Staphylococcus [13]) was 0.12 µg/mL (≈ 0.232 µM). The MIC90 (Staphylococcus [13]) was 4 µg/mL (≈ 7.73 µM), the Activity (Streptococcus pyogenes [14]) was 16 µg/mL and the MIC (Streptococcus pyogenes [14]; Streptococcus pyogenes) was 0.016 µg/mL (≈ 0.0309 µM). For the same compound, the MIC50 (Streptococcus pyogenes [14]; Streptococcus pyogenes) was 0.016 µg/mL (≈ 0.0309 µM) and the MIC90 (Streptococcus pyogenes [14]; Streptococcus pyogenes) was 0.03 µg/mL (≈ 0.0579 µM).

For `C/C(=C\C(=O)OCCCCCCCCC(=O)O)C[C@@H]1OC[C@H](C[C@@H]2O[C@H]2[C@@H](C)[C@H](C)O)[C@@H](O)[C@H]1O` [MUPIROCIN], the MIC50 [1] was over 32 µg/mL, the MIC90 [1] was over 32 µg/mL and the MIC50 (Streptococcus viridans) was 1 µg/mL (≈ 2 µM). The MIC90 (Streptococcus viridans) was 2 µg/mL (≈ 3.99 µM), the MIC50 (Staphylococcus aureus [2]) was 0.25 µg/mL (≈ 0.499 µM) and the MIC90 (Staphylococcus aureus [2]) was 0.5 µg/mL (≈ 0.999 µM). It also gave an MIC50 (Staphylococcus [3]) of 0.25 µg/mL (≈ 0.499 µM), an MIC90 (Staphylococcus [3]) of over 32 µg/mL and an MIC50 (Streptococcus agalactiae) of 1 µg/mL (≈ 2 µM). For the same compound, the MIC90 (Streptococcus agalactiae) was 2 µg/mL (≈ 3.99 µM), the MIC50 [4] was 0.25 µg/mL (≈ 0.499 µM) and the MIC90 [4] was 0.5 µg/mL (≈ 0.999 µM). The MIC50 (Staphylococcus aureus [6]) was 0.25 µg/mL (≈ 0.499 µM), the MIC90 (Staphylococcus aureus [6]) was 1 µg/mL (≈ 2 µM) and the MIC50 (Staphylococcus aureus [8]) was 0.25 µg/mL (≈ 0.499 µM). It also gave an MIC90 (Staphylococcus aureus [8]) of 2 µg/mL (≈ 3.99 µM), an MIC50 (Enterococcus) of 32 µg/mL (≈ 63.9 µM) and an MIC90 (Enterococcus) of over 32 µg/mL. It also gave an MIC50 [11] of 0.5 µg/mL (≈ 0.999 µM), an MIC90 [11] of 1 µg/mL (≈ 2 µM) and an MIC50 (Staphylococcus [13]) of 0.25 µg/mL (≈ 0.499 µM). For the same compound, the MIC90 (Staphylococcus [13]) was 32 µg/mL (≈ 63.9 µM), the MIC50 (Streptococcus pyogenes [14]; Streptococcus pyogenes) was 0.12 µg/mL (≈ 0.24 µM) and the MIC90 (Streptococcus pyogenes [14]; Streptococcus pyogenes) was 0.25 µg/mL (≈ 0.499 µM).
